In ChEMBL document CHEMBL5236578, “Structure-activity relationship study of 4,5-didehydroguadiscine, an aporphine alkaloid showing potent melanogenesis-inhibitory activity in B16 melanoma cells” (Bioorg Med Chem Lett, 2022):
Where a name gives a salt, the structure may show the parent alone.

experiment: Anti-melanogenic activity in theophylline-stimulated mouse B16 melanoma 4A5 cells assessed as inhibition of melanogenesis; format: functional, cell-based

Row | IC50 | SMILES
1 | 4.9 µM | COc1ccc2c(c1)C(C)(C)c1nccc3cc4c(c-2c13)OCO4
2 | > 30 µM | COc1cccc(C(C)(C)c2nccc3cc(OC)ccc23)c1
3 | > 30 µM | COc1cccc(C(C)(C)c2nccc3cc4c(cc23)OCO4)c1
4 | 6.7 µM | CC1(C)c2ccccc2-c2c3c(cc4ccnc1c24)OCO3
5 | 6.5 µM | COc1cc2c(cc1OC)[C@@H](Cc1ccc(O)cc1)N(C)CC2
6 | > 30 µM | CC(C)(c1ccccc1)c1nccc2ccccc12
7 | 7.5 µM | COc1ccc2c(c1)C(C)(C)c1nccc3cc(OC)cc-2c13
8 | 3.1 µM | CC1(C)c2ccccc2-c2cccc3ccnc1c23
9 | > 30 µM | CC(C)(c1ccccc1)c1nccc2cc3c(cc12)OCO3
10 | 5 µM | COc1cc2c3c(nccc3c1)C(C)(C)c1ccccc1-2
11 | > 30 µM | COc1ccc2c(C(C)(C)c3ccccc3)nccc2c1
12 | 18.1 µM | COc1ccc2ccnc(C(C)(C)c3ccccc3)c2c1
13 | 4 µM | COc1ccc2ccnc3c2c1-c1ccccc1C3(C)C
14 | 174 µM | OC[C@H]1O[C@@H](Oc2ccc(O)cc2)[C@H](O)[C@@H](O)[C@@H]1O [ARBUTIN]

Row | SMILES | IC50
15 | COc1cc2c3c(c1OC)-c1ccccc1C[C@H]3N(C)CC2 [NUCIFERINE HYDROCHLORIDE] | 7.1 µM

experiment: Potency index, ratio of arbutin IC50 to test compound IC50 for anti-melanogenic activity in theophylline-stimulated mouse B16 melanoma 4A5 cells assessed as inhibition of melanogenesis; format: functional

Row | SMILES | Ratio IC50
16 | COc1ccc2c(c1)C(C)(C)c1nccc3cc4c(c-2c13)OCO4 | 40
